Where “and” joins values, the source holds several entries; their conditions need not be identical. Equal entries are not always repeated.
Experiments:
Assay in all cases: radiometric filter-binding kinase assay, Kinaseprofiler
CAMK1 (human) = CAMK1 (human) (UniProt Q14012); conditions: ATP 200 µM
NTRK1 (human) = NTRK1 (human) (UniProt P04629); conditions: ATP 120 µM
EPHA7 (human) = EPHA7 (human) (UniProt Q15375); conditions: ATP 90 µM
ABL2 (human) = ABL2 (human) (UniProt P42684); conditions: ATP 45 µM
PRKX (human) = PRKX (human) (UniProt P51817); conditions: ATP 200 µM
Chain of PRKX (human) (P51817 whole entry, looked up): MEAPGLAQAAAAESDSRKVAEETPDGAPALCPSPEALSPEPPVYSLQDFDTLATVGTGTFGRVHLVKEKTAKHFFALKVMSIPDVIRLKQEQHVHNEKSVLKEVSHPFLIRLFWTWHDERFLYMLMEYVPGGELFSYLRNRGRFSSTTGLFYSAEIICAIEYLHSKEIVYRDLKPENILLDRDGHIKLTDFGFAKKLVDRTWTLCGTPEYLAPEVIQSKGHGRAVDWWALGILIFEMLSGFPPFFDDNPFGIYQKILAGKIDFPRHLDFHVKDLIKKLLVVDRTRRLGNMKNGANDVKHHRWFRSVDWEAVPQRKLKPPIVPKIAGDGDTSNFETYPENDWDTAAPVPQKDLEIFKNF

DCLK2 (human) = DCLK2 (human) (UniProt Q8N568); conditions: ATP 90 µM
TBK1 (human) = TBK1 (human) (UniProt Q9UHD2); conditions: ATP 155 µM
BTK (human) = BTK (human) (UniProt Q06187); conditions: ATP 200 µM
Chain of BTK (human) (Q06187 whole entry, looked up): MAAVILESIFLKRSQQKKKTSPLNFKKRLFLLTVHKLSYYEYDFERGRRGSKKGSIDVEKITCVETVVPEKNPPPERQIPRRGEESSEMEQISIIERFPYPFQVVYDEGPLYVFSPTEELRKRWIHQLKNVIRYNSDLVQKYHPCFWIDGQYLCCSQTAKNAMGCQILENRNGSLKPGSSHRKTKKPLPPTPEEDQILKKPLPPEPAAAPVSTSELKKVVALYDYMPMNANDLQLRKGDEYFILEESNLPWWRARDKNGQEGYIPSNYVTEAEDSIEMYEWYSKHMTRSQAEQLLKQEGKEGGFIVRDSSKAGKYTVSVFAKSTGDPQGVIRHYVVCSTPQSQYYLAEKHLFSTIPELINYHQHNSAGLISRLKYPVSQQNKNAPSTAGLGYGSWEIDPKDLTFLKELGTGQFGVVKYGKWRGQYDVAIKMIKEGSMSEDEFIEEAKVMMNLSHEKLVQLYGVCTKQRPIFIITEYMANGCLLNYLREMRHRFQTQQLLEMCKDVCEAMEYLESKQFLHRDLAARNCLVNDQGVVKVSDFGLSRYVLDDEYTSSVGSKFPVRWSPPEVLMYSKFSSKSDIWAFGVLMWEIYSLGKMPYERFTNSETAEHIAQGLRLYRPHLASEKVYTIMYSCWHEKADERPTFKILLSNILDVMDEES

ABL1 (human) = ABL1 (human) (UniProt P00519); conditions: ATP 10 µM
RPS6KA4 KD1 KD2 (human) = RPS6KA4 KD1 KD2 (human) (UniProt O75676); conditions: ATP 45 µM
Chain of RPS6KA4 KD1 KD2 (human) (O75676 whole entry, looked up): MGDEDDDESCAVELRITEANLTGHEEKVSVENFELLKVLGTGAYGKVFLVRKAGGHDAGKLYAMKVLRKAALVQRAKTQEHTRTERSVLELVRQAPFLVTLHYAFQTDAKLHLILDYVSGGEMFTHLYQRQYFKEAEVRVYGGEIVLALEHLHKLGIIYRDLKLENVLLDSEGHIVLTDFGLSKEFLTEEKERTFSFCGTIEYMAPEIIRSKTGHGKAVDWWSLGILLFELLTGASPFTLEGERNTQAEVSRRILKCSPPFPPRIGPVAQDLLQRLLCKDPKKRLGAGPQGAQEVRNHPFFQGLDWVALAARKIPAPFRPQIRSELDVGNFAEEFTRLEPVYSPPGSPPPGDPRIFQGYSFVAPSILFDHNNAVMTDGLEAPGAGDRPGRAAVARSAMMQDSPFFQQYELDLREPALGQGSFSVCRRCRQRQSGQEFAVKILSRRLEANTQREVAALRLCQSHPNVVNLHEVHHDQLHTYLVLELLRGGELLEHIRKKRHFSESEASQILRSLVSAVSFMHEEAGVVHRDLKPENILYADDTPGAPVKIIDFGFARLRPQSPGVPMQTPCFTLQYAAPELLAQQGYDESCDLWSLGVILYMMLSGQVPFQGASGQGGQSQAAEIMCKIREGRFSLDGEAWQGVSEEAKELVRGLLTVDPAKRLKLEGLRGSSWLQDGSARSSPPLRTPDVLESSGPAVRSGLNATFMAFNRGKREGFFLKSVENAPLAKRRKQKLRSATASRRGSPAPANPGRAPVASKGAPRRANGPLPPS

MAP2K6 (human) = MAP2K6 (human) (UniProt P52564); conditions: ATP 10 µM
MARK2 (human) = MARK2 (human) (UniProt Q7KZI7); conditions: ATP 15 µM
TAOK2 (human) = TAOK2 (human) (UniProt Q9UL54); conditions: ATP 15 µM
PIM3 (human) = PIM3 (human) (UniProt Q86V86); conditions: ATP 155 µM
IKBKB (human) = IKBKB (human) (UniProt O14920); conditions: ATP 10 µM
LCK (human) = LCK (human) (UniProt P06239); conditions: compound 1.0 µM; ATP 90 µM
PRKACA (human) = PRKACA (human) (UniProt P17612); conditions: ATP 10 µM
LIMK1 (human) = LIMK1 (human) (UniProt P53667); conditions: ATP 15 µM
Chain of LIMK1 (human) (P53667 whole entry, looked up): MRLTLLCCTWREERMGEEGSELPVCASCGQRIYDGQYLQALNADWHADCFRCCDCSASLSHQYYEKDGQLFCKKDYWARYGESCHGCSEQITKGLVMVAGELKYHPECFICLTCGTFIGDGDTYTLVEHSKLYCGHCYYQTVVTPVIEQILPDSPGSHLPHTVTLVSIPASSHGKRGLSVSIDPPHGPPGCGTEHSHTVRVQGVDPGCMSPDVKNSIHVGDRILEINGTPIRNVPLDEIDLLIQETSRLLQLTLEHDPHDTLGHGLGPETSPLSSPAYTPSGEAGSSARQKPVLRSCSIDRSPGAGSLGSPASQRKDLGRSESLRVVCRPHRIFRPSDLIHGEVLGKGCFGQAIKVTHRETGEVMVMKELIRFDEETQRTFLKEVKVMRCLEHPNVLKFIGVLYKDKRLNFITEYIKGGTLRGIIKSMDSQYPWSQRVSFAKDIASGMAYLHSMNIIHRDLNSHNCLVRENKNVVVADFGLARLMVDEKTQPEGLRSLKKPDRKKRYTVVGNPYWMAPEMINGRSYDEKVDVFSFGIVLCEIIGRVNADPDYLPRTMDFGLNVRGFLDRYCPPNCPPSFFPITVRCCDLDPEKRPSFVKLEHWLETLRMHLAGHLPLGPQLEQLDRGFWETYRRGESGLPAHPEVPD

FGFR3 (human) = FGFR3 (human) (UniProt P22607); conditions: ATP 15 µM
GCK (human) = GCK (human) (UniProt Q12851); conditions: ATP 200 µM
CDC42BPB (human) = CDC42BPB (human) (UniProt Q9Y5S2); conditions: ATP 10 µM
DAPK2 (human) = DAPK2 (human) (UniProt Q9UIK4); conditions: ATP 10 µM
PRKCA (human) = PRKCA (human) (UniProt P17252); conditions: ATP 45 µM
ROCK2 (human) = ROCK2 (human) (UniProt O75116); conditions: ATP 15 µM
CHEK2 (human) = CHEK2 (human) (UniProt O96017); conditions: ATP 70 µM
Chain of CHEK2 (human) (O96017 whole entry, looked up): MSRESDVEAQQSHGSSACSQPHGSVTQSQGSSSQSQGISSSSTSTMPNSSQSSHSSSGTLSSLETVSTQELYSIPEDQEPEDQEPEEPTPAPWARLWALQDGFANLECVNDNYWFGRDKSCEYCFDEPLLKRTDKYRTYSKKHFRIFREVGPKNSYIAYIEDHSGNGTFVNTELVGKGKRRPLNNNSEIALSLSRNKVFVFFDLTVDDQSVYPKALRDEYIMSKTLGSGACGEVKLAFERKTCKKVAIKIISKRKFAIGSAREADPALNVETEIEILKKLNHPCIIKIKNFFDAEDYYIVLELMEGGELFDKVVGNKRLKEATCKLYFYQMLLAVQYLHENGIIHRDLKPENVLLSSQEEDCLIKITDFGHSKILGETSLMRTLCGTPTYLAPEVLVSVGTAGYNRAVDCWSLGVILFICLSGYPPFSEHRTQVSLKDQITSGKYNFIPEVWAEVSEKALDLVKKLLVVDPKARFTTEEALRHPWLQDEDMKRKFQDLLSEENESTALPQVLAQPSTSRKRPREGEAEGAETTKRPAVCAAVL

SRPK1 (human) = SRPK1 (human) (UniProt Q96SB4); conditions: ATP 10 µM
KIT (human) = KIT (human) (UniProt P10721); conditions: ATP 200 µM
DAPK1 (human) = DAPK1 (human) (UniProt P53355); conditions: ATP 70 µM
[1] = system: SGK2 (human), Q9HBY8 [S416D]; conditions: ATP 15 µM
Chain of SGK2 (human), Q9HBY8 [S416D] (Q9HBY8 whole entry, looked up, stated change not applied): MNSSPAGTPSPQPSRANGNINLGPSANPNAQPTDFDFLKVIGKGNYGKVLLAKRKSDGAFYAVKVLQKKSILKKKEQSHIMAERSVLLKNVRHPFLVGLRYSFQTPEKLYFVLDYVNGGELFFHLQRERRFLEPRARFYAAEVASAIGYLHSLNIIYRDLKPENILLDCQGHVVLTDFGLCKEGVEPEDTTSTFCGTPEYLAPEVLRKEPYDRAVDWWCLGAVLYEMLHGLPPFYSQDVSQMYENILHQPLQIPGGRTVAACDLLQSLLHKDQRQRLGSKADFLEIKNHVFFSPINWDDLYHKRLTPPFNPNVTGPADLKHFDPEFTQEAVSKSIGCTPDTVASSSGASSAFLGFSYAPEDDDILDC

PRKCQ (human) = PRKCQ (human) (UniProt Q04759); conditions: ATP 15 µM
EPHA8 (human) = EPHA8 (human) (UniProt P29322); conditions: ATP 200 µM
[2] = biological target: CSNK2A1 CSNK2B CSNK2A2 (human) (UniProt P19784+P68400+P67870); conditions: ATP 15 µM
Chain of CSNK2A1 CSNK2B CSNK2A2 (human) (P19784 whole entry, looked up): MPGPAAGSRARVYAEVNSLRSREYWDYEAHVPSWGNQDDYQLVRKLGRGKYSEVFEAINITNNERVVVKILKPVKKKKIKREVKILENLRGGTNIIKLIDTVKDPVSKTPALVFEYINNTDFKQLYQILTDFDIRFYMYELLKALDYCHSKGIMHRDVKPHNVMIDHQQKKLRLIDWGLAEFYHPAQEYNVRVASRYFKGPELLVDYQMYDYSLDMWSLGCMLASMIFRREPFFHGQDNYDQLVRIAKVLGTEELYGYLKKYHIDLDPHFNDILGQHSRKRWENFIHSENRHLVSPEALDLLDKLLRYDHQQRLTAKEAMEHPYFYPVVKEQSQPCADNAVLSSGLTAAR
Chain of CSNK2A1 CSNK2B CSNK2A2 (human) (P67870 whole entry, looked up): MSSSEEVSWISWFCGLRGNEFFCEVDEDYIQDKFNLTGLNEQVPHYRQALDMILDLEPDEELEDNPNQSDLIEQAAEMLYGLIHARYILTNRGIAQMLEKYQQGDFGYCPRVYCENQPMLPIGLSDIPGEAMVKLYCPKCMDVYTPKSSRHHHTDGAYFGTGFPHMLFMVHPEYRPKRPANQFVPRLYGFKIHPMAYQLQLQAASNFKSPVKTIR
Chain of CSNK2A1 CSNK2B CSNK2A2 (human) (P68400 whole entry, looked up): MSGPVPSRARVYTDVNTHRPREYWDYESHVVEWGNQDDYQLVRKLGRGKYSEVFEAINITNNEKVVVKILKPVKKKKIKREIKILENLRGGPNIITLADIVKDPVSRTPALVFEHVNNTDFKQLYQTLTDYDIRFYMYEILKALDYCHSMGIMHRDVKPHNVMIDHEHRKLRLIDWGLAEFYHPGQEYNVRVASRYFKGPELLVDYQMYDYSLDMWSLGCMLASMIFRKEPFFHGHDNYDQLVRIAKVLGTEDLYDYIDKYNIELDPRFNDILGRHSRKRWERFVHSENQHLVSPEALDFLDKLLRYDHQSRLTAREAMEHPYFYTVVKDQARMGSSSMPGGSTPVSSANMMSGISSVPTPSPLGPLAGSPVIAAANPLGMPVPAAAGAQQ

GRK7 (human) = GRK7 (human) (UniProt Q8WTQ7); conditions: ATP 15 µM

O=C1c2ccccc2-c2n[nH]c3cccc1c23
residual activity (CAMK1 (human); compound 1.0 µM): 77%
residual activity (CAMK1 (human); compound 10.0 µM): 32%
residual activity (NTRK1 (human); compound 1.0 µM): 10%
residual activity (NTRK1 (human); compound 10.0 µM): -1%
residual activity (EPHA7 (human); compound 1.0 µM): 80%
residual activity (EPHA7 (human); compound 10.0 µM): 41%
residual activity (ABL2 (human); compound 1.0 µM): 87%
residual activity (ABL2 (human); compound 10.0 µM): 72%
residual activity (PRKX (human); compound 1.0 µM): 86%
residual activity (PRKX (human); compound 10.0 µM): 70%
residual activity (DCLK2 (human); compound 1.0 µM): 116%
residual activity (DCLK2 (human); compound 10.0 µM): 51%
residual activity (TBK1 (human); compound 1.0 µM): 35%
residual activity (TBK1 (human); compound 10.0 µM): 11%
residual activity (BTK (human); compound 1.0 µM): 88%
residual activity (BTK (human); compound 10.0 µM): 57%
residual activity (ABL1 (human); compound 1.0 µM): 83%
residual activity (ABL1 (human); compound 10.0 µM): 56%
residual activity (RPS6KA4 KD1 KD2 (human); compound 1.0 µM): 76%
residual activity (RPS6KA4 KD1 KD2 (human); compound 10.0 µM): 36%
residual activity (MAP2K6 (human); compound 1.0 µM): 82%
residual activity (MAP2K6 (human); compound 10.0 µM): 13%
residual activity (MARK2 (human); compound 1.0 µM): 55%
residual activity (MARK2 (human); compound 10.0 µM): 12%
residual activity (TAOK2 (human); compound 1.0 µM): 101%
residual activity (TAOK2 (human); compound 10.0 µM): 69%
residual activity (PIM3 (human); compound 1.0 µM): 75%
residual activity (PIM3 (human); compound 10.0 µM): 59%
residual activity (IKBKB (human); compound 1.0 µM): 78%
residual activity (IKBKB (human); compound 10.0 µM): 43%
residual activity (LCK (human)): 70% and 89%
residual activity (PRKACA (human); compound 1.0 µM): 89%
residual activity (PRKACA (human); compound 10.0 µM): 73%
residual activity (LIMK1 (human); compound 1.0 µM): 64%
residual activity (LIMK1 (human); compound 10.0 µM): 30%
residual activity (FGFR3 (human); compound 1.0 µM): 72%
residual activity (FGFR3 (human); compound 10.0 µM): 40%
residual activity (GCK (human); compound 1.0 µM): 16%
residual activity (GCK (human); compound 10.0 µM): 2%
residual activity (CDC42BPB (human); compound 1.0 µM): 90%
residual activity (CDC42BPB (human); compound 10.0 µM): 95%
residual activity (DAPK2 (human); compound 1.0 µM): 87%
residual activity (DAPK2 (human); compound 10.0 µM): 43%
residual activity (PRKCA (human); compound 1.0 µM): 98%
residual activity (PRKCA (human); compound 10.0 µM): 73%
residual activity (ROCK2 (human); compound 1.0 µM): 74%
residual activity (ROCK2 (human); compound 10.0 µM): 39%
residual activity (CHEK2 (human); compound 1.0 µM): 29%
residual activity (CHEK2 (human); compound 10.0 µM): 2%
residual activity (SRPK1 (human); compound 1.0 µM): 98%
residual activity (SRPK1 (human); compound 10.0 µM): 87%
residual activity (KIT (human); compound 1.0 µM): 91%
residual activity (KIT (human); compound 10.0 µM): 30%
residual activity (DAPK1 (human); compound 1.0 µM): 91%
residual activity (DAPK1 (human); compound 10.0 µM): 68%
residual activity ([1]; compound 1.0 µM): 71%
residual activity ([1]; compound 10.0 µM): 33%
residual activity (PRKCQ (human); compound 1.0 µM): 90%
residual activity (PRKCQ (human); compound 10.0 µM): 76%
residual activity (EPHA8 (human); compound 1.0 µM): 92%
residual activity (EPHA8 (human); compound 10.0 µM): 76%
residual activity ([2]; compound 1.0 µM): 60%
residual activity ([2]; compound 10.0 µM): 19%
residual activity (GRK7 (human); compound 1.0 µM): 71%
residual activity (GRK7 (human); compound 10.0 µM): 27%

— the kinase profiling compilation of Christmann-Franck et al. (2016)
